Source: ChEMBL document CHEMBL1201862, “PubChem BioAssay data set” (2004)
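Following 48 hours of exposure in 96-well plates, responses at five concentrations were used to interpolate endpoints linearly. GI50 is the concentration that inhibits growth by half.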 Activity calls are given as the source filed them. Rule as the data show it: active = GI50 up to about 1.1 µM and inactive = higher.

Legend:
Assay in all cases: NCI anticancer screen, dose series, 48 h
K562 = test system: K562
COLO 205 = test system: COLO 205
RPMI-8226 = test system: RPMI-8226
HOP-62 = test system: HOP-62
EKVX = test system: EKVX
SF-539 = test system: SF-539
SW-620 = test system: SW-620
Malme-3M = test system: Malme-3M
MCF7 = test system: MCF7
LOX IMVI = test system: LOX IMVI
NCI-H23 = test system: NCI-H23
OVCAR-3 = test system: OVCAR-3
Hs-578T = test system: Hs-578T
SK-MEL-28 = test system: SK-MEL-28
HCT-116 = test system: HCT-116
HCT-15 = test system: HCT-15
OVCAR-8 = test system: OVCAR-8
CCRF-CEM = test system: CCRF-CEM
HL-60 = test system: HL-60
HOP-92 = test system: HOP-92
IGROV-1 = test system: IGROV-1
TK-10 = test system: TK-10
UACC-62 = test system: UACC-62
SNB-75 = test system: SNB-75
SK-MEL-2 = test system: SK-MEL-2
SK-OV-3 = test system: SK-OV-3
RXF 393 = test system: RXF 393
T47D = test system: T47D
SK-MEL-5 = test system: SK-MEL-5
MDA-MB-435 = test system: MDA-MB-435
MDA-N = test system: MDA-N
SNB-19 = test system: SNB-19
A549 = test system: A549
OVCAR-4 = test system: OVCAR-4
KM12 = test system: KM12
PC-3 = test system: PC-3
HT-29 = test system: HT-29
MOLT-4 = test system: MOLT-4
HCC 2998 = test system: HCC 2998
SR = test system: SR
SN12C = test system: SN12C
SF-295 = test system: SF-295
786-0 = test system: 786-0
SF-268 = test system: SF-268

SMILES: c1cc2c(cc1NC1=NCCO1)CCC2
- GI50 (K562): 9.75 µM (inactive)
- GI50 (COLO 205): > 10 µM (inactive)
- GI50 (RPMI-8226): > 10 µM (inactive)
- GI50 (HOP-62): > 10 µM (inactive)
- GI50 (EKVX): > 10 µM (inactive)
- GI50 (SF-539): 3.08 µM (inactive)
- GI50 (SW-620): 8.26 µM (inactive)
- GI50 (Malme-3M): > 10 µM (inactive)
- GI50 (MCF7): > 10 µM (inactive)
- GI50 (LOX IMVI): > 10 µM (inactive)
- GI50 (NCI-H23): > 10 µM (inactive)
- GI50 (OVCAR-3): > 10 µM (inactive)
- GI50 (Hs-578T): 1.03 µM (active)
- GI50 (SK-MEL-28): > 10 µM (inactive)
- GI50 (HCT-116): 4.49 µM (inactive)
- GI50 (HCT-15): > 10 µM
- GI50 (OVCAR-8): > 10 µM (inactive)
- GI50 (CCRF-CEM): > 10 µM (inactive)
- GI50 (HL-60): 5.61 µM (inactive)
- GI50 (HOP-92): 7.5 µM (inactive)
- GI50 (IGROV-1): > 10 µM (inactive)
- GI50 (TK-10): > 10 µM (inactive)
- GI50 (UACC-62): > 10 µM (inactive)
- GI50 (SNB-75): 9.1 µM (inactive)
- GI50 (SK-MEL-2): > 10 µM (inactive)
- GI50 (SK-OV-3): > 10 µM (inactive)
- GI50 (RXF 393): > 10 µM (inactive)
- GI50 (T47D): > 10 µM (inactive)
- GI50 (SK-MEL-5): > 10 µM (inactive)
- GI50 (MDA-MB-435): 8.04 µM (inactive)
- GI50 (MDA-N): 3.24 µM (inactive)
- GI50 (SNB-19): 0.0869 µM (active)
- GI50 (A549): > 10 µM (inactive)
- GI50 (OVCAR-4): > 10 µM (inactive)
- GI50 (KM12): > 10 µM (inactive)
- GI50 (PC-3): > 10 µM (inactive)
- GI50 (HT-29): > 10 µM (inactive)
- GI50 (MOLT-4): > 10 µM (inactive)
- GI50 (HCC 2998): > 10 µM (inactive)
- GI50 (SR): > 10 µM (inactive)
- GI50 (SN12C): > 10 µM (inactive)
- GI50 (SF-295): > 10 µM (inactive)
- GI50 (786-0): > 10 µM (inactive)
- GI50 (SF-268): > 10 µM (inactive)
